Experimental data reported in patent publication US9637457B2, “Process for the stereoselective preparation of a pyrazole-carboxamide” (Syngenta Participations AG, priority 2014, dated 2017).
Read-outs that look alike come from different tables or passages of the source.

What was measured:
fungi [1] = conditions: racemic compound, described in WO 2010/063700; cited from earlier work
fungi [2] = assay: fungicidal activity (general statement, no test described); conditions: enantiomer Ib compared with enantiomer Ia / racemate

| SMILES | fungicidal activity (fungi [1]) | fungicidal activity (fungi [2]) |
| --- | --- | --- |
| CON(C(=O)c1cn(C)nc1C(F)F)C(C)Cc1c(Cl)cc(Cl)cc1Cl (racemic) [3-(difluoromethyl)-N-methoxy-1-methyl-N-[1-methyl-2-(2,4,6-trichlorophenyl)ethyl]pyrazole-4-carboxamide] | excellent fungicidal activity |  |
| CON(C(=O)c1cn(C)nc1C(F)F)[C@@H](C)Cc1c(Cl)cc(Cl)cc1Cl [Ib, 3-(difluoromethyl)-N-methoxy-1-methyl-N-[(1S)-1-methyl-2-(2,4,6-trichlorophenyl)ethyl]pyrazole-4-carboxamide] |  | more prominent fungicidal activity |
